# US20250243180A1, “TARGETED PROTEIN DEGRADATION” (Monte Rosa Therapeutics AG, priority 2023, published 2025)
# Like-named read-outs stand apart in the source and are kept apart here.
# Columns and labels:
# CRBN-DDB1 = CRBN-DDB1 (Homo sapiens (Human), UniProt Q96SW2); assay: Compound binding to CRBN by HTRF assay
# In short: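 Ki calculated via Cheng-Prusoff from geometric-mean EC50 values, after normalizing the HTRF ratio to lenalidomide (active) and DMSO (neutral) controls. Compounds (11 points, 1:3 steps) incubated 30 min at ambient temperature with CRBN-DDB1 2.5 nM, anti-His Tb cryptate and Cy5-thalidomide tracer 100 nM.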
# NEK7 = NEK7 (Homo sapiens (Human), UniProt Q8TDX7+Q96SW2); assay: NEK7 NanoBiT degradation assay in Cal51 NEK7 NanoBiT cell line; assay type: cell-based; conditions: Cal51 NEK7 NanoBiT cells, 24 hours; for Dmax: CAL-51
# In short: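 EC50 comes from a 4-parameter fit of control-normalized luminescence. The luminescence reports HiBiT-NEK7 (endogenous knock-in) complemented by stably expressed LgBiT in Cal51 cells after 24 h compound exposure at 37 °C. Final concentrations ran 1 μM to 0.05 nM, with Endurazine substrate present in the medium throughout.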
# [1] = NEK7 degradation, read-out: NanoBiT Dmax
# [2] = NEK7 degradation, read-out: NanoBiT DC50
# CRBN-DDB1, sequence (Q96SW2 whole entry): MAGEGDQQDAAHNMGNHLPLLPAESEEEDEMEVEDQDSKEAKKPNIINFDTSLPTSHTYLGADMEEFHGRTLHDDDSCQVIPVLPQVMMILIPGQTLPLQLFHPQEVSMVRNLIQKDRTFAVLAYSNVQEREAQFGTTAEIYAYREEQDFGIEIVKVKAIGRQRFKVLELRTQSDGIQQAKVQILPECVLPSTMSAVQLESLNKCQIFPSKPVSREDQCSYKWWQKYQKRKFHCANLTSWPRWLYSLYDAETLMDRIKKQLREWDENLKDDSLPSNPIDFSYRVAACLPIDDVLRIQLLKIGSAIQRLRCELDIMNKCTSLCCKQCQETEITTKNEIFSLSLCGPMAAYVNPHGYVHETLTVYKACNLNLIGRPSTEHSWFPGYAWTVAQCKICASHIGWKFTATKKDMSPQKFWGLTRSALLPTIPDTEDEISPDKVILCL
# CRBN-DDB1, sequence (Q16531 whole entry partner): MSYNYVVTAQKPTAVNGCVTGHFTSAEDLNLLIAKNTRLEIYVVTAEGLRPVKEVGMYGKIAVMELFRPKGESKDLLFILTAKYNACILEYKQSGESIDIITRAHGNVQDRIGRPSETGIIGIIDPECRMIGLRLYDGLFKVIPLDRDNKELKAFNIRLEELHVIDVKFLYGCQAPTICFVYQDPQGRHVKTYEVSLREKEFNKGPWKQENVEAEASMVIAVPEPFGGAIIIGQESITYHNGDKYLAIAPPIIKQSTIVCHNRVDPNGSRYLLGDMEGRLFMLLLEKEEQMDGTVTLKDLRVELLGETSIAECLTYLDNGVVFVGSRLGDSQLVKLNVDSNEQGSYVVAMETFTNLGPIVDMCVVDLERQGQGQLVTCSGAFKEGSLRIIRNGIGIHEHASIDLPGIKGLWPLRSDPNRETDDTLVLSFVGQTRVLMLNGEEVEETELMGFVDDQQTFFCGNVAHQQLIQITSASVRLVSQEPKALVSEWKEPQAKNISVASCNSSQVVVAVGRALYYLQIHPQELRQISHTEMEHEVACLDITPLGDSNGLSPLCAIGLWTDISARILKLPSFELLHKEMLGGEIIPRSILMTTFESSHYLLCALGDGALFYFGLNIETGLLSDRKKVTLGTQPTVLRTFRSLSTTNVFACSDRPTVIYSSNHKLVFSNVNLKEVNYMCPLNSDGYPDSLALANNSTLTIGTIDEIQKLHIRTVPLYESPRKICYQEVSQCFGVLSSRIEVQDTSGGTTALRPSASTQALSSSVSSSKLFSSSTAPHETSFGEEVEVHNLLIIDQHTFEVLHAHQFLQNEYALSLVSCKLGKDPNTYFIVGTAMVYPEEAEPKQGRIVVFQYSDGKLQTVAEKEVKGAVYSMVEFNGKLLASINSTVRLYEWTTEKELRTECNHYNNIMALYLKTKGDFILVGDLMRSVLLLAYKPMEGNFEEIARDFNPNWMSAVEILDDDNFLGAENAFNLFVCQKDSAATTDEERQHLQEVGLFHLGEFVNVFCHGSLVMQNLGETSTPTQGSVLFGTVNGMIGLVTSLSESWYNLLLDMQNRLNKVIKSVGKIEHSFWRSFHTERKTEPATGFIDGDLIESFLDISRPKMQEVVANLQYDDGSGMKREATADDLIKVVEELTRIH
# NEK7, sequence (Q8TDX7 whole entry): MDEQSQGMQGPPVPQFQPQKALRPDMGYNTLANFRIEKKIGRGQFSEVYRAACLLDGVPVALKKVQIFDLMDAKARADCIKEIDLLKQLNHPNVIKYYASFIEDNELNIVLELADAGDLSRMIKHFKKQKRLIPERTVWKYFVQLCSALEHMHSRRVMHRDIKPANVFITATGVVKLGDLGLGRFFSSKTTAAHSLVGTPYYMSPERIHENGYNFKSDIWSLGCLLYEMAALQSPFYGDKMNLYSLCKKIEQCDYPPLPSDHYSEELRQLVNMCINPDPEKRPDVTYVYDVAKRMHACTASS
# NEK7, sequence (Q96SW2 whole entry): as the sequence (Q96SW2 whole entry) above
# NEK7, sequence (Q16531 2-1140 partner): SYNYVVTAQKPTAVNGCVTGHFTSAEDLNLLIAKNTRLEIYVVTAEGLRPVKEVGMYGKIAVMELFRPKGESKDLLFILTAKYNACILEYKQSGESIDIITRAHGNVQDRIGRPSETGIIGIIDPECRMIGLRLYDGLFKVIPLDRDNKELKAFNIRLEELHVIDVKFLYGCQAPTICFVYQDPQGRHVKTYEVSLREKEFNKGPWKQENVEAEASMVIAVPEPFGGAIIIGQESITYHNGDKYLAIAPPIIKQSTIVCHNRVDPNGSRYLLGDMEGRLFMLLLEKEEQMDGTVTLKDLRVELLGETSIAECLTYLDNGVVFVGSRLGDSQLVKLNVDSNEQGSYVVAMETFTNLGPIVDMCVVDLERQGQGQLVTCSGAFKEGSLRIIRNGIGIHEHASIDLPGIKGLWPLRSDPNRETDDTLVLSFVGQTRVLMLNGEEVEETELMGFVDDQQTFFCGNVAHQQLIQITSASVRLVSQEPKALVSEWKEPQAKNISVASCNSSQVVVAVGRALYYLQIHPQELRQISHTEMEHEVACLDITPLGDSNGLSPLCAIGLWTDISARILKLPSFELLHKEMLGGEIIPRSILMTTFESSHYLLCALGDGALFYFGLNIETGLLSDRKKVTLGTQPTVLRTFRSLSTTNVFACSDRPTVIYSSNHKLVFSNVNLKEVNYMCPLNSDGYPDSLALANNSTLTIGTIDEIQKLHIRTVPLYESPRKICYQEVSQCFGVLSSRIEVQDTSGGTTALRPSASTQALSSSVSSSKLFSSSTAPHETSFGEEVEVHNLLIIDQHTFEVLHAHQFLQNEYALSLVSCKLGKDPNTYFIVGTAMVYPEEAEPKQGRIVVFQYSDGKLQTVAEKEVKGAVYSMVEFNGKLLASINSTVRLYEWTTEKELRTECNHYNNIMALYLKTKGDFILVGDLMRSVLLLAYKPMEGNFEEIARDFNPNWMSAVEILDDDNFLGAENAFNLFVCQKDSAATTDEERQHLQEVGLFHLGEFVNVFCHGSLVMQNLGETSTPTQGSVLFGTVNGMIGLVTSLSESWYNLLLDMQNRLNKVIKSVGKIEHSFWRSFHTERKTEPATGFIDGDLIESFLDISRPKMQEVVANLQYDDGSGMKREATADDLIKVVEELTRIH
EC50 (CRBN-DDB1),"EC50 (CRBN-DDB1; HTRF class, Cereblon binding)",Dmax (NEK7; read-out: NEK7 NanoBiT Dmax),Dmax (NEK7; [1]),DC50 (NEK7; read-out: NEK7 NanoBiT DC50),DC50 (NEK7; [2]),SMILES
0.15 µM,0.1 to 1 µM,56%,50 to 75%,0.327 µM,0.1 to 1 µM,COCc1ccnc(C(C)(C)C(=O)NCc2cc(Cl)c(C3CCC(=O)NC3=O)c(Cl)c2)n1 (stereo not drawn) [Compound 217]
0.08 µM,≤ 0.1 µM,71%,50 to 75%,0.049 µM,≤ 0.1 µM,CC(C)(C(=O)NCc1cc(Cl)c(C2CCC(=O)NC2=O)c(Cl)c1)c1nc(C2CC2)no1 (stereo not drawn) [Compound 218]
0.08 µM,≤ 0.1 µM,72%,50 to 75%,0.047 µM,≤ 0.1 µM,CC(C)(C(=O)NCc1cc(Cl)c(C2CCC(=O)NC2=O)c(Cl)c1)c1nc(C(F)F)no1 (stereo not drawn) [Compound 219]
0.15 µM,0.1 to 1 µM,91%,> 75%,0.008 µM,≤ 0.1 µM,CC(C)(C(=O)NCc1cc(Cl)c(C2CCC(=O)NC2=O)c(Cl)c1)c1nocc1C(F)(F)F (stereo not drawn) [Compound 220]
0.08 µM,≤ 0.1 µM,83%,> 75%,0.019 µM,≤ 0.1 µM,"COc1cnc(C(C)(C)C(=O)NCc2cc(Cl)c(C3CCC(=O)NC3=O)c(Cl)c2)nc1C (stereo not drawn) [Compound 221, N-(3,5-dichloro-4-(2,6-dioxopiperidin-3-yl)benzyl)-2-(5-methoxy-4-methylpyrimidin-2-yl)-2-methylpropanamide]"
0.16 µM,0.1 to 1 µM,73%,50 to 75%,0.054 µM,≤ 0.1 µM,"COCc1cnc(C(C)(C)C(=O)NCc2cc(Cl)c(C3CCC(=O)NC3=O)c(Cl)c2)cn1 (stereo not drawn) [Compound 222, N-(3,5-dichloro-4-(2,6-dioxopiperidin-3-yl)benzyl)-2-(5-(methoxymethyl)pyrazin-2-yl)-2-methylpropanamide]"
0.09 µM,≤ 0.1 µM,91%,> 75%,0.008 µM,≤ 0.1 µM,"CC(C)(C(=O)NCc1cc(Cl)c(C2CCC(=O)NC2=O)c(Cl)c1)c1ccc(OC(F)(F)F)nn1 (stereo not drawn) [Compound 223, N-(3,5-dichloro-4-(2,6-dioxopiperidin-3-yl)benzyl)-2-methyl-2-(6-(trifluoromethoxy)pyridazin-3-yl)propanamide]"
0.13 µM,0.1 to 1 µM,54%,50 to 75%,0.556 µM,0.1 to 1 µM,"Cc1nnc(C2(C(=O)NCc3cc(Cl)c(C4CCC(=O)NC4=O)c(Cl)c3)CCC2)o1 (stereo not drawn) [Compound 226, N-(3,5-dichloro-4-(2,6-dioxopiperidin-3-yl)benzyl)-1-(5-methyl-1,3,4-oxadiazol-2-yl)-cyclobutane-1-carboxamide]"
0.11 µM,0.1 to 1 µM,92%,> 75%,0.006 µM,≤ 0.1 µM,"COc1conc1C(C)(C)C(=O)NCc1cc(Cl)c(C2CCC(=O)NC2=O)c(Cl)c1 (stereo not drawn) [Compound 227, N-(3,5-dichloro-4-(2,6-dioxopiperidin-3-yl)benzyl)-2-(4-methoxyisoxazol-3-yl)-2-methylpropanamide]"
0.15 µM,0.1 to 1 µM,85%,> 75%,0.018 µM,≤ 0.1 µM,COCc1ccc(C(C)(C)C(=O)NCc2cc(Cl)c(C3CCC(=O)NC3=O)c(Cl)c2)nn1 (stereo not drawn) [Compound 228]
0.12 µM,0.1 to 1 µM,88%,> 75%,0.012 µM,≤ 0.1 µM,"CC(C)(C(=O)NCc1cc(Cl)c(C2CCC(=O)NC2=O)c(Cl)c1)c1ncc(OC(F)(F)F)cn1 (stereo not drawn) [Compound 229, N-(3,5-dichloro-4-(2,6-dioxopiperidin-3-yl)benzyl)-2-methyl-2-(5-(trifluoromethoxy)-pyrimidin-2-yl)propanamide]"
0.11 µM,0.1 to 1 µM,83%,> 75%,0.023 µM,≤ 0.1 µM,"CC(C)(C(=O)NCc1cc(Cl)c(C2CCC(=O)NC2=O)c(Cl)c1)c1cc(C(F)(F)F)on1 (stereo not drawn) [Compound 230, N-(3,5-dichloro-4-(2,6-dioxopiperidin-3-yl)benzyl)-2-methyl-2-(5-(trifluoromethyl)isoxazol-3-yl)propanamide]"
0.14 µM,0.1 to 1 µM,82%,> 75%,0.023 µM,≤ 0.1 µM,"CC(C)(C(=O)NCc1cc(Cl)c(C2CCC(=O)NC2=O)c(Cl)c1)c1ncc(CO)cn1 (stereo not drawn) [Compound 231, N-(3,5-dichloro-4-(2,6-dioxopiperidin-3-yl)benzyl)-2-(5-(hydroxymethyl)pyrimidin-2-yl)-2-methylpropanamide]"
0.15 µM,0.1 to 1 µM,93%,> 75%,0.003 µM,≤ 0.1 µM,CC(C)(C(=O)NCc1cc(Cl)c(C2CCC(=O)NC2=O)c(Cl)c1)c1cnc(C2CC2)cn1 (stereo not drawn) [Compound 232]
0.19 µM,0.1 to 1 µM,74%,50 to 75%,0.029 µM,≤ 0.1 µM,"COCc1nc(C(C)(C)C(=O)NCc2cc(Cl)c(C3CCC(=O)NC3=O)c(Cl)c2)ncc1C (stereo not drawn) [Compound 233, N-(3,5-dichloro-4-(2,6-dioxopiperidin-3-yl)benzyl)-2-(4-(methoxymethyl)-5-methylpyrimidin-2-yl)-2-methylpropanamide]"
0.07 µM,≤ 0.1 µM,97%,> 75%,0.001 µM,≤ 0.1 µM,"CCOc1cnc(C(C)(C)C(=O)NCc2cc(Cl)c(C3CCC(=O)NC3=O)c(Cl)c2)cn1 (stereo not drawn) [Compound 234, N-(3,5-dichloro-4-(2,6-dioxopiperidin-3-yl)benzyl)-2-(5-ethoxypyrazin-2-yl)-2-methylpropanamide]"
0.56 µM,0.1 to 1 µM,11%,≤ 50%,1 µM,> 1 µM,"CC(C)(C(=O)NCc1cc(Cl)c(C2CCC(=O)NC2=O)c(Cl)c1)c1ncc(C(=O)O)cn1 (stereo not drawn) [Compound 235, 2-(1-((3,5-dichloro-4-(2,6-dioxopiperidin-3-yl)benzyl)amino)-2-methyl-1-oxopropan-2-yl)pyrimidine-5-carboxylic acid]"
0.25 µM,0.1 to 1 µM,71%,50 to 75%,0.041 µM,≤ 0.1 µM,Cc1ocnc1C(C)(C)C(=O)NCc1cc(Cl)c(C2CCC(=O)NC2=O)c(Cl)c1 (stereo not drawn) [Compound 236]
0.15 µM,0.1 to 1 µM,87%,> 75%,0.011 µM,≤ 0.1 µM,[2H]C([2H])([2H])C(C(=O)NCc1cc(Cl)c(C2CCC(=O)NC2=O)c(Cl)c1)(c1ncc(C)cn1)C([2H])([2H])[2H] (stereo not drawn) [Compound 237]
0.17 µM,0.1 to 1 µM,63%,50 to 75%,0.153 µM,0.1 to 1 µM,"CC(C)(O)c1cnc(C(C)(C)C(=O)NCc2cc(Cl)c(C3CCC(=O)NC3=O)c(Cl)c2)cn1 (stereo not drawn) [Compound 238, N-(3,5-dichloro-4-(2,6-dioxopiperidin-3-yl)benzyl)-2-(5-(2-hydroxypropan-2-yl)pyrazin-2-yl)-2-methylpropanamide]"
